The record followed here is patent US9403866B2, “Compositions and methods for increasing telomerase activity” (Telomerase Activation Sciences, Inc., priority 2009, dated 2016).

Each structure is given as a SMILES string.

For this experiment, the system named is huCD34+ cells. As to the kind of experiment: Colony formation assay of huCD34+ cells. The conditions noted are these: 100 nM, 14 days. Type of experiment: cell-based, human. As to the method:
Human hematopoietic progenitor CD34+ cells (healthy donor) were plated into a standard colony formation assay in the presence of compound 4 (100 nM), vehicle (0.1% DMSO), or nothing. After 14 days, hematopoietic colonies were enumerated (CFU-E, […], CFU-GM, and CFU-GEMM). The plates containing compound 4 had 17% more colony forming units than vehicle alone. (Total colony counts were: untreated, 106.5; vehicle-treated, 103.5; compound 4-treated, 121.5)

Consider `CC(C)C(N)C(=O)OC1CCC23CC24CCC2(C)C(C5(C)CCC(C(C)(C)O)O5)C(O)CC2(C)C4CC(O)C3C1(C)C` (stereo not drawn) [Compound 4, 2-(L)-Amino-3-methyl-butyric acid 6α,16β-dihydroxy-17-[5-(1-hydroxy-1-methyl-ethyl)-2-methyl-tetrahydro-furan-2-yl]-4,4,13,14-tetramethyl-tetradecahydro-cyclopropa[9,10]cyclopenta[a]phenanthren-3β-yl ester], for which the BFU-E colonies is 25.5, the CFU-E colonies is on record as 11, the CFU-GEMM colonies was 5 and the CFU-GM colonies was determined as 80. For the same compound, the Total colony counts is recorded as 121.5 and the “more colony forming units than vehicle alone” value stood at 17%.
